SMILES strings stand for the structures.

Here are results for 27 compounds from ChEMBL document CHEMBL1129724, “Inhibitory potency of lithocholic acid analogs and other bile acids on glucuronosyltransferase activity in a colon cancer cell line” (Bioorg Med Chem Lett, 1996).

The assay deals with HT-29. Put plainly: Inhibition of glucuronosyltransferase activity in the human colon cancer cell line HT-29 at 5 uM concentration. The format is cell-based. Also on record: scale not given: the % may be the effect or the level left.
`C[C@H](CCC(=O)O)[C@H]1CC[C@H]2[C@@H]3CC(O)[C@@H]4C[C@H](O)CC[C@]4(C)[C@H]3CC[C@]12C` (single isomer, unassigned) registered an Activity of 75.2%.

Compound `C[C@H](CCC(=O)O)[C@H]1CC[C@H]2[C@@H]3CC[C@@H]4CCCC[C@]4(C)[C@H]3CC[C@]12C` returned an Activity of 92%.

As to `CC(CCC(=O)O)[C@H]1CC[C@H]2[C@@H]3C(=O)C[C@@H]4C[C@H](O)CC[C@]4(C)[C@H]3CC[C@]12C` (some centres not stated), the Activity was 51.1%.

For the compound `C[C@H](CCC(=O)O)[C@H]1CC[C@H]2[C@@H]3[C@H](O)C[C@@H]4C[C@H](O)CC[C@]4(C)[C@H]3CC[C@]12C`, the Activity came out at 38.4%.

Take `CC(CC(O)C(=O)O)[C@H]1CC[C@H]2[C@@H]3CC[C@@H]4C[C@H](O)CC[C@]4(C)[C@H]3CC[C@]12C` (single isomer, unassigned): the Activity amounted to 55.4%.

In turn, `CC(CC(O)C(=O)O)[C@H]1CC[C@H]2[C@@H]3CC[C@@H]4C[C@H](O)CC[C@]4(C)[C@H]3CC[C@]12C` (mixture of isomers) registered an Activity of 40%.

In the case of `C[C@@H](CCC(=O)O)[C@H]1CC[C@H]2[C@@H]3[C@H](O)[C@@H](O)[C@@H]4C[C@H](O)CC[C@]4(C)[C@H]3CC[C@]12C`, the Activity was 100%.

Compound `CC(CCCO)[C@H]1CC[C@H]2[C@@H]3CC[C@@H]4C[C@H](O)CC[C@]4(C)[C@H]3CC[C@]12C` (some centres not stated) yielded an Activity of 72.8%.

As for `CC(CC(O)C(=O)O)[C@H]1CC[C@H]2[C@@H]3CC[C@@H]4C[C@H](O)CC[C@]4(C)[C@H]3CC[C@]12C` (stereo in doubt), the Activity came to 34.9%.

In the case of `C[C@H](CCC(=O)O)[C@H]1CC[C@H]2[C@@H]3CC[C@@H]4C[C@H](O)CC[C@]4(C)[C@H]3CC[C@]12C`, the Activity was 25.3%.

On to `CC(CCC(=O)O)[C@H]1CC[C@H]2[C@@H]3CC[C@@H]4C[C@@H](O)CC[C@]4(C)[C@H]3CC[C@]12C` (some centres not stated), for which the Activity came to 86.9%.

Consider `C[C@H](CCC(=O)O)[C@H]1CC[C@H]2[C@@H]3[C@@H](O)C[C@@H]4C[C@H](O)CC[C@]4(C)[C@H]3CC[C@]12C`, for which the Activity was found to be 73.3%.

In turn, `CC(CCC(=O)O)[C@H]1CC[C@H]2[C@@H]3CC[C@@H]4C[C@H](O)CC[C@]4(C)[C@H]3CC(=O)[C@]12C` (some centres not stated) gave an Activity of 36.1%.

`CC(CCC(=O)O)[C@H]1CC[C@H]2[C@@H]3C(=O)C[C@@H]4C[C@H](O)CC[C@]4(C)[C@H]3CC(=O)[C@]12C` (some centres not stated) returned an Activity of 100%.

`CC(CCC(=O)O)C1CCC2C3C=CC4C[C@H](O)CCC4(C)C3CCC12C` (some centres not stated) returned an Activity of 41.4%.

In turn, `C[C@H](CCC(=O)O)[C@H]1CC[C@H]2[C@@H]3CCC4CC(O)CC[C@]4(C)[C@H]3CC[C@]12C` (single isomer, unassigned) yielded an Activity of 46.8%.

`CC(CCCOP(=O)(O)O)[C@H]1CC[C@H]2[C@@H]3CC[C@@H]4C[C@H](O)CC[C@]4(C)[C@H]3CC[C@]12C` (some centres not stated): the Activity worked out at 74%.

As for `C[C@H](CCC(=O)O)[C@H]1CC[C@H]2[C@@H]3CC[C@@H]4C[C@H](O)CCC4(C)[C@H]3CC(O)[C@]12C` (single isomer, unassigned), the Activity was 48%.

Compound `CC(CCC(=O)O)[C@H]1CC[C@H]2[C@@H]3[C@@H](O)[C@H](O)[C@@H]4C[C@H](O)CC[C@]4(C)[C@H]3CC[C@]12C` (some centres not stated) returned an Activity of 78.5%.

For `CC(CCC(=O)O)[C@H]1CC[C@H]2[C@@H]3CC(=O)[C@@H]4C[C@H](O)CC[C@]4(C)[C@H]3CC[C@]12C` (some centres not stated), the Activity is 28.1%.

`CC(CCC(C(=O)O)C(=O)O)[C@H]1CC[C@H]2[C@@H]3CC[C@@H]4C[C@H](O)CC[C@]4(C)[C@H]3CC[C@]12C` (some centres not stated): the Activity is 74.3%.

`CC(CCC(=O)O)[C@H]1CC[C@H]2[C@@H]3CC[C@@H]4CC(=O)CC[C@]4(C)[C@H]3CC[C@]12C` (some centres not stated) gave an Activity of 46%.

Compound `CC(CCC(=O)O)C1CCC2C3C=CC4C[C@@H](O)CCC4(C)C3CCC12C` (some centres not stated) returned an Activity of 39.1%.

The compound `CC(CCCCC(=O)O)[C@H]1CC[C@H]2[C@@H]3CC[C@@H]4C[C@H](O)CC[C@]4(C)[C@H]3CC[C@]12C` (some centres not stated) came in with an Activity of 41.9%.

For the compound `CC(CCC(=O)O)[C@H]1CC[C@H]2[C@@H]3[C@H](O)C[C@@H]4C[C@H](O)CC[C@]4(C)[C@H]3C[C@@H](O)[C@]12C` (some centres not stated), the Activity came to 98.3%.

The compound `CC(CCC(=O)O)[C@H]1CC[C@H]2[C@@H]3CC[C@@H]4C[C@@H](O)CC[C@]4(C)[C@H]3C[C@@H](O)[C@]12C` (some centres not stated) registered an Activity of 46.4%.

`CC(CCC(=O)O)[C@H]1CC[C@H]2[C@@H]3[C@H](O)[C@H](O)[C@@H]4C[C@H](O)CC[C@]4(C)[C@H]3CC[C@]12C` (some centres not stated) had an Activity of 73.9%.
